The record followed here is patent US20240269139A1, “COMPOUNDS FOR TARGETED PROTEIN DEGRADATION OF KINASES” (DANA-FARBER CANCER INSTITUTE, INC., priority 2020, published 2024).

Assay type in all cases: cell-based
In test [1] the target is protein kinases (human kinome) (Homo sapiens, UniProt Q9Y243). The settings on record: AKT3 (Q9Y243-1).
In test [2] the target is T1, protein kinases (human kinome) (Homo sapiens, UniProt P52789).
T1 sequence (P52789 1-917): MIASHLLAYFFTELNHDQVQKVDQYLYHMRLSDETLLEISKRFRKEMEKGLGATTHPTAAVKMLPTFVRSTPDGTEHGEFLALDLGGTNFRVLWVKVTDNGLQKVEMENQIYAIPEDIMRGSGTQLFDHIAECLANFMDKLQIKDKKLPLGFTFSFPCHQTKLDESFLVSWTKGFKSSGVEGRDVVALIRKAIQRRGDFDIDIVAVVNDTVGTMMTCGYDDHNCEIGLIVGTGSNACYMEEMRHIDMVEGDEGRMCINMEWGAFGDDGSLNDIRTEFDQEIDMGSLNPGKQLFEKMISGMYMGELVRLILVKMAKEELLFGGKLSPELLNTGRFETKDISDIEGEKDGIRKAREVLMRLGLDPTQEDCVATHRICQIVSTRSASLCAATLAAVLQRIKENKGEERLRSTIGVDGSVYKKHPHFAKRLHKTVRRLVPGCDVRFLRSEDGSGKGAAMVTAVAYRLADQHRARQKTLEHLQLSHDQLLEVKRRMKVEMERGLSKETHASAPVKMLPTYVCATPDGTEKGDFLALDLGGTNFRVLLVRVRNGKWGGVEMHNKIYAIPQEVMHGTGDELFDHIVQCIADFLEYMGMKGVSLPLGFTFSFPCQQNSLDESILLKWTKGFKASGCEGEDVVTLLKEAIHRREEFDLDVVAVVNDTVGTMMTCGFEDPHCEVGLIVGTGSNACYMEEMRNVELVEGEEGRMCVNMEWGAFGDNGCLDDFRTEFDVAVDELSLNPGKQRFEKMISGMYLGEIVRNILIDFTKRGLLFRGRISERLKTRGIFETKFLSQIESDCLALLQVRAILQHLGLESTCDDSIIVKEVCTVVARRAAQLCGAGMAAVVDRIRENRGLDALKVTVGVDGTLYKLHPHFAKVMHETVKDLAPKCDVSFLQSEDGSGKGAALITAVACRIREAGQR
The settings on record: HK2 (P52789); experiment wp076.

Test [3] deals with T2, protein kinases (human kinome) (Homo sapiens, UniProt Q86YV5).
T2 sequence (Q86YV5 1-1406): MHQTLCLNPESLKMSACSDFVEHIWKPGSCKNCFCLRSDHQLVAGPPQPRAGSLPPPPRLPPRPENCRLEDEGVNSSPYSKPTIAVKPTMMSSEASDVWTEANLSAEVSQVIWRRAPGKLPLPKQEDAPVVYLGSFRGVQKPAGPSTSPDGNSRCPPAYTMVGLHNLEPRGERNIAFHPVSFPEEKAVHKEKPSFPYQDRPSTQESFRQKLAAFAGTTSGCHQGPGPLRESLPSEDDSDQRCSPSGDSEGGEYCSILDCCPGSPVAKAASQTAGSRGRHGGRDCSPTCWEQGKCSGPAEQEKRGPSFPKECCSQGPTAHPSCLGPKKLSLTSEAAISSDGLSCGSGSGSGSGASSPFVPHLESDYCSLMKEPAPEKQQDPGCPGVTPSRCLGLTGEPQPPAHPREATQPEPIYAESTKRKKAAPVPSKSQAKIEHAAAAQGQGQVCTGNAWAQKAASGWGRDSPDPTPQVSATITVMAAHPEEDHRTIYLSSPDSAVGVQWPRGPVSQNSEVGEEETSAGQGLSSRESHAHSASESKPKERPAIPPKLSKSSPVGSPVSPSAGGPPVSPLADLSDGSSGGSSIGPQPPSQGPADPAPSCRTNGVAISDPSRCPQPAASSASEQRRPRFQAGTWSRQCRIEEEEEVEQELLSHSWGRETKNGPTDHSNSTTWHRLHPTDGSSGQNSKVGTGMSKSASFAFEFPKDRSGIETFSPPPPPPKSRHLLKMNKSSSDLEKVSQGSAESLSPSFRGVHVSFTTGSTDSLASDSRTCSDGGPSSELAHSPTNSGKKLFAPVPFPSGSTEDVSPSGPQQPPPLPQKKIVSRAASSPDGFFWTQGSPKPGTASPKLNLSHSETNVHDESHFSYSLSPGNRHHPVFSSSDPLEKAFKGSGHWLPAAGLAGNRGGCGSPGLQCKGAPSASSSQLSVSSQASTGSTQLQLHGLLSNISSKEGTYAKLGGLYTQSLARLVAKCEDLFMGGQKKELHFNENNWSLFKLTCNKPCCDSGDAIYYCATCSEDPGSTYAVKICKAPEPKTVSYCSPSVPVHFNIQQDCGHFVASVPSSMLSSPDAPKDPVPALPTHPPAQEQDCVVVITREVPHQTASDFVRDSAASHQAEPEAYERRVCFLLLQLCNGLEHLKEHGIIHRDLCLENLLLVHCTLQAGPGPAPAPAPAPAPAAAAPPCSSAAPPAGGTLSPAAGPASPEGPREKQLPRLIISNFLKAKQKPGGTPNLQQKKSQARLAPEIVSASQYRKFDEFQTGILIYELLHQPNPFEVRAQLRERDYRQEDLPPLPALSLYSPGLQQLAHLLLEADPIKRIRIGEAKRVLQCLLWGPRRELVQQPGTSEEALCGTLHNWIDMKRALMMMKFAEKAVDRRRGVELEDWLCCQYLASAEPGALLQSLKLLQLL
The settings on record: PRAG1 Q86YV5.

Like-named read-outs stand apart in the source and are kept apart here.

protein kinases (human kinome) (Homo sapiens, UniProt Q9Y243), sequence (Q9Y243 whole entry): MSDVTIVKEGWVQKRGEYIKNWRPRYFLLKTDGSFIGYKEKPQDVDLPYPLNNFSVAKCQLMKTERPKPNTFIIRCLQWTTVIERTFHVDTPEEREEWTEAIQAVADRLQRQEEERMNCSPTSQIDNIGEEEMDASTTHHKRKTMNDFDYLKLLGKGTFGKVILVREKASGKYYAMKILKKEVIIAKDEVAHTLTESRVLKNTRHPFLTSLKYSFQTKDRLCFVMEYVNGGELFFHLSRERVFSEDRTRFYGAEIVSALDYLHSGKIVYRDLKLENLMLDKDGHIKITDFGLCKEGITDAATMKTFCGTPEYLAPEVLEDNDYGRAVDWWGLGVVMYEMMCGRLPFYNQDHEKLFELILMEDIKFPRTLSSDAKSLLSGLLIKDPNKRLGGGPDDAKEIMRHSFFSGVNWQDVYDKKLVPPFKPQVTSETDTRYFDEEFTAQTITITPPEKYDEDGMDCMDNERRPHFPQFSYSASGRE

Consider `C[C@@H]1C[C@@H](O)c2ncnc(N3CCN(C(=O)[C@H](CNCCCCCCCCCCc4cccc5c4C(=O)N(C4CCC(=O)NC4=O)C5=O)c4ccc(Cl)cc4)CC3)c21` (stereo partly drawn) [INY.03.041.01], for which the logFC in test [1] (experiment wp118) was −2.769; in test [1] (experiment wp118, direction down), −2.769; in test [1] (experiment wp135, 4 hr) it was −1.925; in test [1] (experiment wp135, 4 hr, direction down) it was −1.925.
In test [2], `CNC(=O)c1ccccc1Nc1cc(Nc2ccc(N3CCN(CCOCCOCCNC(=O)CNc4cccc5c4C(=O)N(C4CCC(=O)NC4=O)C5=O)CC3)cc2OC)ncc1C(F)(F)F` (stereo not drawn) [MFH.5.103.1] returned a logFC of −0.3819.
The same measure, in the same setting: then `O=C1CCC(N2C(=O)c3cccc(NCCCCCCCCN4CCC(NC(=O)c5[nH]ncc5NC(=O)c5c(Cl)cccc5Cl)CC4)c3C2=O)C(=O)N1` (stereo not drawn) [MFH.5.126.1], with −0.322.
On to `CC(C)S(=O)(=O)c1ccccc1Nc1nc(Nc2ccc(N3CCN(CCOCCNC(=O)CNc4cccc5c4C(=O)N(C4CCC(=O)NC4=O)C5=O)CC3)cc2)ncc1Cl` (stereo not drawn) [SK.3.91], for which the logFC in test [1] (experiment wp105) is given as −0.7783; in test [1] (experiment wp105, direction down), −0.7783; in test [3] (experiment wp107), −0.3692; in test [3] (experiment wp133, 2 hr) it was −0.3667; in test [3] (experiment wp133, 4 hr) it was −0.4352. Besides, the “logFC PRAG1” value is −0.3692 in test [3] (experiment wp107); −0.3667 in test [3] (experiment wp133, 2 hr); −0.4352 in test [3] (experiment wp133, 4 hr).
In the case of `CC(C)S(=O)(=O)c1ccccc1Nc1nc(Nc2ccc(N3CCN(CCOCCOCCNC(=O)CNc4cccc5c4C(=O)N(C4CCC(=O)NC4=O)C5=O)CC3)cc2)ncc1Cl` (stereo not drawn) [TL12.186], the logFC in test [3] (experiment wp131) is on record as −0.4243; in test [3] (experiment wp137) it was −0.3459. For the same compound, the “logFC PRAG1” value in test [3] (experiment wp131) was −0.4243; in test [3] (experiment wp137), −0.3459.
